Like-named read-outs stand apart in the source and are kept apart here.
Experiments:
[1] = target: T1, recombinant human FLAP protein (Homo sapiens, UniProt P20292); assay: FLAP binding assay (Scintillation Proximity Assay, displacement of [125I]L-691,831); details: recombinant human FLAP membranes, [125I]L-691,831 probe; read-out: FLAP SPA IC50
T1 construct: made in house; host or cells: Sf9 insect cells (100,000 x g membrane fraction)
T1 sequence (P20292 1-161): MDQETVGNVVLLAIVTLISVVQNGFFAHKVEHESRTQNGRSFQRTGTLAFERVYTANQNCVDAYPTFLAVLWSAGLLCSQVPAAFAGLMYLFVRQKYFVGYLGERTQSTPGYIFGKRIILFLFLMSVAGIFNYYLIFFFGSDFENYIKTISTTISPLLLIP
How it was run: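 Membranes came from Sf9 insect cells expressing recombinant human FLAP, collected as the 100,000×g pellet in Tris pH 7.5/MgCl2/EDTA buffer. 5 μg membrane protein was coupled to WGA SPA beads for 1 h.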

[2] = tested on: synthesis of LTB4 in human whole blood; assay: human whole blood LTB4 production inhibition assay; type: cell-based; details: heparinized human whole blood, calcimycin 20 μM, read-out: hWB LTB4 IC50
How it was run: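 LTB4 in plasma was quantified by HTRF immunoassay. Before that, compound-treated heparinized whole blood (15 min, 37 °C) received 20 μM final calcimycin for a further 30 min at 37 °C, followed by centrifugation at 1500×g.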

| IC50 [1] | IC50 ([2]; Homo sapiens) | IC50 [2] | SMILES |
| --- | --- | --- | --- |
| 61 nM | > 5000 nM | – | Cc1ccc(C(=O)Nc2nc(C3(c4ccc(-c5cnc(N)nc5)cc4)CCC3)no2)cn1 [Example 178, N-(3-{1-[4-(2-Amino-pyrimidin-5-yl)-phenyl]-cyclobutyl}-1,2,4-oxadiazol-5-yl)-6-methyl-nicotinamide] |
| 12 nM | 1400 nM | – | Nc1ncc(-c2ccc(C3(c4noc(-c5cccnc5N5CCOCC5)n4)CCC3)cc2)cn1 [Example 179, 5-(4-{1-[5-(2-Morpholin-4-yl-pyridin-3-yl)-1,2,4-oxadiazol-3-yl]-cyclobutyl}-phenyl)-pyrimidin-2-ylamine] |
| 0.85 nM | 73 nM | – | Nc1ncc(-c2ccc(C3(c4noc(-c5ccc(NCCO)nc5)n4)CCC3)cc2)cn1 [Example 180, 2-[5-(3-{1-[4-(2-Amino-pyrimidin-5-yl)-phenyl]-cyclobutyl}-1,2,4-oxadiazol-5-yl)-pyridin-2-ylamino]-ethanol] |
| 1.2 nM | 62 nM | – | CN(CCO)c1ccc(-c2nc(C3(c4ccc(-c5cnc(N)nc5)cc4)CCC3)no2)cn1 [Example 181, 2-{[5-(3-{1-[4-(2-Amino-pyrimidin-5-yl)-phenyl]-cyclobutyl}-1,2,4-oxadiazol-5-yl)-pyridin-2-yl]-methyl-amino}-ethanol] |
| 1.1 nM | 40 nM | – | COCCNc1ccc(-c2nc(C3(c4ccc(-c5cnc(N)nc5)cc4)CCC3)no2)cn1 [Example 182, 5-[4-(1-{5-[6-(2-Methoxy-ethylamino)-pyridin-3-yl]-1,2,4-oxadiazol-3-yl}-cyclobutyl)-phenyl]-pyrimidin-2-ylamine] |
| 0.88 nM | 53 nM | – | CCNc1ccc(-c2nc(C3(c4ccc(-c5cnc(N)nc5)cc4)CCC3)no2)cn1 [Example 183, 5-(4-{1-[5-(6-Ethylamino-pyridin-3-yl)-1,2,4-oxadiazol-3-yl]-cyclobutyl}-phenyl)-pyrimidin-2-ylamine] |
| 2.6 nM | 140 nM | – | Nc1ncc(-c2ccc(C3(c4noc(-c5cc[nH]c(=O)c5)n4)CCC3)cc2)cn1 [Example 184, 4-(3-{1-[4-(2-Amino-pyrimidin-5-yl)-phenyl]-cyclobutyl}-1,2,4-oxadiazol-5-yl)-1H-pyridin-2-one] |
| 7.3 nM | 230 nM | – | Cn1cc(-c2nc(C3(c4ccc(-c5cnc(N)nc5)cc4)CCC3)no2)cnc1=O [Example 185, 5-(3-{1-[4-(2-Amino-pyrimidin-5-yl)-phenyl]-cyclobutyl}-1,2,4-oxadiazol-5-yl)-1-methyl-1H-pyrimidin-2-one] |
| 12 nM | 710 nM | – | N#Cc1ccc(-c2nc(C3(c4ccc(-c5cnc(N)nc5)cc4)CCC3)no2)nc1 [Example 186, 6-(3-{1-[4-(2-Amino-pyrimidin-5-yl)-phenyl]-cyclobutyl}-1,2,4-oxadiazol-5-yl)-nicotinonitrile] |
| 8.4 nM | 3400 nM | – | Nc1ncc(-c2ccc(C3(c4noc(-c5cnc(Cl)cn5)n4)CCC3)cc2)cn1 [Example 187, 5-(4-{1-[5-(5-chloro-pyrazin-2-yl)-1,2,4-oxadiazol-3-yl]-cyclobutyl}-phenyl)-pyrimidin-2-ylamine] |
| 6.2 nM | 81 nM | – | CN(C)C(=O)Cn1cc(-c2nc(C3(c4ccc(-c5cnc(N)nc5)cc4)CCC3)no2)cn1 [Example 188, 2-[4-(3-{1-[4-(2-amino-pyrimidin-5-yl)-phenyl]-cyclobutyl}-1,2,4-oxadiazol-5-yl)-pyrazol-1-yl]-N,N-dimethyl-acetamide] |
| 8.1 nM | 310 nM | – | Nc1ncc(-c2ccc(C3(c4noc(-c5cocn5)n4)CCC3)cc2)cn1 [Example 189, 5-{4-[1-(5-Oxazol-4-yl-1,2,4-oxadiazol-3-yl)-cyclobutyl]-phenyl}-pyrimidin-2-ylamine] |
| 1.2 nM | 27 nM | – | Nc1ncc(-c2ccc(C3(c4noc(-c5ccc6[nH]ncc6c5)n4)CCC3)cc2)cn1 [Example 190, 5-(4-{1-[5-(1H-Indazol-5-yl)-1,2,4-oxadiazol-3-yl]-cyclobutyl}-phenyl)-pyrimidin-2-ylamine] |
| 2.6 nM | > 5000 nM | – | Nc1ncc(-c2ccc(C3(c4noc(-c5cc(Cl)c[nH]c5=O)n4)CCC3)cc2)cn1 [Example 191, 3-(3-{1-[4-(2-Amino-pyrimidin-5-yl)-phenyl]-cyclobutyl}-1,2,4-oxadiazol-5-yl)-5-chloro-1H-pyridin-2-one] |
| 1.7 nM | > 5000 nM | – | Cc1ccc(-c2nc(C3(c4ccc(-c5cnc(N)nc5)cc4)CCC3)no2)c(=O)[nH]1 [Example 192, 3-(3-{1-[4-(2-Amino-pyrimidin-5-yl)-phenyl]-cyclobutyl}-1,2,4-oxadiazol-5-yl)-6-methyl-1H-pyridin-2-one] |
| 1.6 nM | 45 nM | – | Nc1cnc(-c2nc(C3(c4ccc(-c5cnc(N)nc5)cc4)CCC3)no2)cn1 [Example 193, 5-(4-{1-[5-(5-Amino-pyrazin-2-yl)-1,2,4-oxadiazol-3-yl]-cyclobutyl}-phenyl)-pyrimidin-2-ylamine] |
| 3 nM | 85 nM | – | Nc1ncc(-c2ccc(C3(c4noc(-c5cnc(N6CCC[C@H]6CO)cn5)n4)CCC3)cc2)cn1 [Example 194, {(S)-1-[5-(3-{1-[4-(2-Amino-pyrimidin-5-yl)-phenyl]-cyclobutyl}-1,2,4-oxadiazol-5-yl)-pyrazin-2-yl]-pyrrolidin-2-yl}-methanol] |
| 2.9 nM | 140 nM | – | Nc1ncc(-c2ccc(C3(c4noc(-c5cnc(N6CCC[C@@H]6CO)cn5)n4)CCC3)cc2)cn1 [Example 195, {(R)-1-[5-(3-{1-[4-(2-Amino-pyrimidin-5-yl)-phenyl]-cyclobutyl}-1,2,4-oxadiazol-5-yl)-pyrazin-2-yl]-pyrrolidin-2-yl}-methanol] |
| 2.1 nM | 24 nM | – | CNc1cnc(-c2nc(C3(c4ccc(-c5cnc(N)nc5)cc4)CCC3)no2)cn1 [Example 196, 5-(4-{1-[5-(5-Methylamino-pyrazin-2-yl)-1,2,4-oxadiazol-3-yl]-cyclobutyl}-phenyl)-pyrimidin-2-ylamine] |
| 1.5 nM | 48 nM | – | CC(C)Nc1cnc(-c2nc(C3(c4ccc(-c5cnc(N)nc5)cc4)CCC3)no2)cn1 [Example 197, 5-(4-{1-[5-(5-Isopropylamino-pyrazin-2-yl)-1,2,4-oxadiazol-3-yl]-cyclobutyl}-phenyl)-pyrimidin-2-ylamine] |
| 2 nM | 57 nM | – | COCCN(C)c1cnc(-c2nc(C3(c4ccc(-c5cnc(N)nc5)cc4)CCC3)no2)cn1 [Example 198, 5-{4-[1-(5-{5-[(2-Methoxy-ethyl)-methyl-amino]-pyrazin-2-yl}-1,2,4-oxadiazol-3-yl)-cyclobutyl]-phenyl}-pyrimidin-2-ylamine] |
| 1 nM | 42 nM | – | CCOC(=O)CNc1cnc(-c2nc(C3(c4ccc(-c5cnc(N)nc5)cc4)CCC3)no2)cn1 [Example 199, [5-(3-{1-[4-(2-Amino-pyrimidin-5-yl)-phenyl]-cyclobutyl}-1,2,4-oxadiazol-5-yl)-pyrazin-2-ylamino]-acetic acid ethyl ester] |
| 1.5 nM | 67 nM | – | CC(O)CNc1cnc(-c2nc(C3(c4ccc(-c5cnc(N)nc5)cc4)CCC3)no2)cn1 (stereo not shown) [Example 200, 1-[5-(3-{1-[4-(2-Amino-pyrimidin-5-yl)-phenyl]-cyclobutyl}-1,2,4-oxadiazol-5-yl)-pyrazin-2-ylamino]-propan-2-ol] |
| 2.3 nM | 400 nM | – | Nc1ncc(-c2ccc(C3(c4noc(-c5cnc(N6CCNC(=O)C6)cn5)n4)CCC3)cc2)cn1 [Example 201, 5′-(3-{1-[4-(2-Amino-pyrimidin-5-yl)-phenyl]-cyclobutyl}-1,2,4-oxadiazol-5-yl)-5,6-dihydro-4H-1,2′-bipyrazinyl-3-one] |
| 2.6 nM | 70 nM | – | CS(=O)(=O)N1CCN(c2cnc(-c3nc(C4(c5ccc(-c6cnc(N)nc6)cc5)CCC4)no3)cn2)CC1 [Example 202, 5-(4-{1-[5-(4-Methanesulfonyl-3,4,5,6-tetrahydro-2H-1,2′-bipyrazinyl-5′-yl)-1,2,4-oxadiazol-3-yl]-cyclobutyl}-phenyl)-pyrimidin-2-ylamine] |
| 1.9 nM | 130 nM | – | CS(=O)(=O)C1CCN(c2cnc(-c3nc(C4(c5ccc(-c6cnc(N)nc6)cc5)CCC4)no3)cn2)C1 (stereo not shown) [Example 203, 5-[4-(1-{5-[5-(3-Methanesulfonyl-pyrrolidin-1-yl)-pyrazin-2-yl]-1,2,4-oxadiazol-3-yl}-cyclobutyl)-phenyl]-pyrimidin-2-ylamine] |
| 4.5 nM | – | 75 nM | CCNC(=O)Cn1cc(-c2nc(C3(c4ccc(-c5cnc(N)nc5)cc4)CCC3)no2)cn1 [Example 204, 2-[4-(3-{1-[4-(2-Amino-pyrimidin-5-yl)-phenyl]-cyclobutyl}-[1,2,4]oxadiazol-5-yl)-pyrazol-1-yl]-N-ethyl-acetamide] |
| 4.3 nM | – | 38 nM | CCN(C)C(=O)Cn1cc(-c2nc(C3(c4ccc(-c5cnc(N)nc5)cc4)CCC3)no2)cn1 [Example 206, 2-[4-(3-{1-[4-(2-Amino-pyrimidin-5-yl)-phenyl]-cyclobutyl}-[1,2,4]oxadiazol-5-yl)-pyrazol-1-yl]-N-ethyl-N-methyl-acetamide] |
| 2.8 nM | 52 nM | – | CC(C)NC(=O)Cn1cc(-c2nc(C3(c4ccc(-c5cnc(N)nc5)cc4)CCC3)no2)cn1 [Example 208, 2-[4-(3-{1-[4-(2-Amino-pyrimidin-5-yl)-phenyl]-cyclobutyl}-[1,2,4]oxadiazol-5-yl)-pyrazol-1-yl]-N-isopropyl-acetamide] |
